# Patent US20240201169A1, “METHODS OF THREE-DIMENSIONAL TUMOR SPHEROID MICROARRAY FOR HIGH-THROUGHPUT, HIGH-CONTENT IMMUNE CELL-MEDIATED CYTOTOXICITY” (RENSSELAER POLYTECHNIC INSTITUTE, priority 2021, published 2024)
# Key:
# MCF7 spheroids = assay type: cell-based; conditions: for target cell cytotoxicity of combination: combination of NK92-CD16 at E:T 10:1, Trastuzumab and drug (3.5 nM doxorubicin, p<0.01; 7.0 nM paclitaxel, p<0.05)
# Method: (§1) High-content imaging of 3D tumor spheroid micropillar array for effector cell-mediated cytotoxicity including NK ADCC/drug combination. Uniform-sized 3D spheroids in the 330-micropillar array were used to perform high-throughput ADCC on three different cancer cell lines; MiaPaCa-2, MCF7 and MDA-MB-231, the latter a triple negative breast cancer cell line, in the presence and absence of two chemotherapeutic drugs, doxorubicin and paclitaxel. The ADCC screen was performed by spotting 250 nL onto polydopamine-coated micropillars including 2500 target cancer cells per spot. The cells were cultured for 3 days and then treated with NK92-CD16 cells. […] As a control, one block of spots was reserved for exposure of target cells with both antibody and the drugs but without NK92-CD16 cells. The micropillar/microwell sandwich platform was incubated for 24 h upside-down to allow for target cell killing on culture day 3. The next day, the chips were then washed, stained with Hoechst 33342, Calcein-AM and Propidium Iodide, and imaged using the ASFA™ scanner.
# (§2) There was interest in whether MDA-MB-231, which is a triple negative breast cancer cell line having reduced expression of estrogen receptor (ER), progesterone receptor and HER252, was susceptible to cell death upon combination exposure of paclitaxel, Atezolizumab and NK92-CD16 cells. Triple negative breast cancers are particularly aggressive to treat due to very low expression levels of ER, PR and HER253. To test this, the three target cancer cell lines were spotted onto the 330-micropillar platform to generate the corresponding 3D spheroids. […] The 3D spheroids on the micropillar chip were incubated for 24 h, and then stained and imaged.
# 3D experiments on 330-micropillar/microwell sandwich system. Polystyrene 330 micropillar chips (MBD Korea Co., South Korea) were coated with polydopamine, washed and dried until further use. The 330 well chips were UV-treated using a 96 W transilluminator (Syngene GVM-30) for 4 h to enhance surface hydrophilicity. Cancer cells were detached as described previously and mixed with high concentration growth factor-reduced Matrigel to obtain a final cell concentration of 1×10^7 cells/mL. Then, 250 nL of the Matrigel-cell mixture was spotted using the ASFA™ spotter onto the polydopamine coated 330 micropillar chips. […]
# (§3) Similarly, for the dose response experiments with paclitaxel, where the E:T ratio was fixed at 5:1, 25 different conditions including a dead cell control were evaluated, as shown in Table 2.
# (§4) Unconjugated anti-HER2 antibody was used for experiments on 330 micropillar/microwell chips. […] The chips were subsequently washed in DPBS and imaged using an ASFA™ Cell Scanner (MBD Korea Co., South Korea) and quantitatively analyzed using cell analyzer software within the imaging system. […]
# MDA-MB-231 spheroids = assay: 3D tumor spheroid 330-micropillar/microwell cytotoxicity (NK ADCC/drug combination, paclitaxel dose response); assay type: cell-based; conditions: for target cell cytotoxicity of combination: combination of NK92-CD16 at E:T 10:1, Trastuzumab and drug (3.5 nM doxorubicin, p<0.01; 7.0 nM paclitaxel, p<0.05)
# Method: as §1, §2
# 3D experiments on 330-micropillar/microwell sandwich system. Polystyrene 330 micropillar chips (MBD Korea Co., South Korea) were coated with polydopamine, washed and dried until further use. The 330 well chips were UV-treated using a 96 W transilluminator (Syngene GVM-30) for 4 h to enhance surface hydrophilicity. Cancer cells were detached as described previously and mixed with high concentration growth factor-reduced Matrigel to obtain a final cell concentration of 1×10^7 cells/mL. Then, 250 nL of the Matrigel-cell mixture was spotted using the ASFA™ spotter onto the polydopamine coated 330 micropillar chips. The chips were incubated face down in a humidity chamber at 37° C. for 15 min to allow for gelation and then they were sandwiched with the corresponding 330 microwell chip including 3.6 μL of fresh medium per well. The chips were cultured for a period of 3 days prior to NK cell exposure. The cell growth medium on the chip was exchanged every 2 days. For cytotoxicity experiments, where the NK92-CD16 ratio was varied, 25 different conditions were tested (see Table 1 below), including a dead control (via addition of saponin).
# as §3
# as §4, with “chips. […] The micropillar chip with target cells was then stamped onto the 330 microwell chip and incubated upside down for 24 h.” for “chips.”
# [1] = tested on: three target cancer cell lines (3D spheroids); assay: cells; conditions: 24 h, read-out: EC50 (paclitaxel-induced cytotoxicity)
# From the text: as §2
# 3D experiments on 330-micropillar/microwell sandwich system. Polystyrene 330 micropillar chips (MBD Korea Co., South Korea) were coated with polydopamine, washed and dried until further use. […]
# as §3, §4
# MiaPaCa-2 spheroids = conditions: antibody 2.5 μg/mL with NK92-CD16 (5:1) and paclitaxel dose range, 24 h
# Method: as §1, with “The next day, the chips were then washed, stained with Hoechst 33342, Calcein-AM and Propidium Iodide, and imaged using the ASFA™ scanner.” left out
# as §3, §4
# [2] = paclitaxel alone, spheroid culture
Compound,target cell cytotoxicity of combination (MCF7 spheroids; 24 h),target cell cytotoxicity of combination (MDA-MB-231 spheroids; 24 h),EC50 [1] [µM],effectiveness as a cytotoxic agent (MCF7 spheroids; [2]),"fold lower EC50 value for paclitaxel (MCF7 spheroids; paclitaxel with Trastuzumab 2.5 μg/mL and NK92-CD16 (5:1) vs absence of antibody and effector cells, 24 h)",effectiveness as a cytotoxic agent (MDA-MB-231 spheroids; [2]),"fold lower EC50 value for paclitaxel (MDA-MB-231 spheroids; paclitaxel in the presence of Atezolizumab 2.5 μg/mL along with NK92-CD16 (5:1), 24 h)","cytotoxic effectiveness of condition (MDA-MB-231 spheroids; paclitaxel in the presence of both Trastuzumab 2.5 μg/mL and NK92-CD16 (5:1), 24 h)",inducing cytotoxicity (MiaPaCa-2 spheroids)
COc1cccc2c1C(=O)c1c(O)c3c(c(O)c1C2=O)C[C@@](O)(C(=O)CO)C[C@@H]3O[C@H]1C[C@H](N)[C@H](O)[C@H](C)O1 [doxorubicin],significantly more effective,significantly more effective,–,–,–,–,–,–,–
CC(=O)O[C@H]1C(=O)[C@@]2(C)[C@H]([C@H](OC(=O)c3ccccc3)[C@]3(O)C[C@H](OC(=O)[C@H](O)[C@@H](NC(=O)c4ccccc4)c4ccccc4)C(C)=C1C3(C)C)[C@]1(OC(C)=O)CO[C@@H]1C[C@@H]2O [paclitaxel],significantly more effective,significantly more effective,> 500,poorly effective,approximately 1.8 fold,poorly effective,approximately 43 fold,did not prove to be effective,–
Atezolizumab,–,–,–,–,–,–,–,–,effective in inducing cytotoxicity
